According to US7018988B2, “Pharmaceutically active pyrrolidine derivatives as Bax inhibitors” (Applied Research Systems ARS Holding N.V., priority 2000, dated 2006):

Target: T1, Bax (Homo sapiens, UniProt Q07812)
T1 construct: endogenous in cells; host or cells: mitochondria isolated from HeLa cells
Assay: Effect of compounds on the release of cytochrome c triggered by Bid-induced Bax activation (in vitro assay d)
Assay type: biochemical
Conditions: compound at 10 μM; mitochondria isolated from HeLa cells; 10 nM recombinant Bid
Procedure: d) Effect of Compounds according to formula I onto the Release of Cytochrome c Trig-gered by Bid-Induced Bax Activation (In Vitro Assay)
Concerning the Bid-induced activation of Bax leading to mitochondrial Cytochrome C release, it is referred to the description of Martinou et al. in The Journal of Cell Biology, Vol. 144, No. 5, Mar. 8, 1999, pages 891–901. Mitochondria isolated from HeLa cells are incubated for 15 min at 30° C. in 100 μl of KCl buffer in the presence or absence of 10 nM recombinant Bid. The various compounds (10 μM) are pre-incubated for 5 min prior to addition of Bid. Following incubation, mitochondria were centrifuged for 5 min at 13000 g at 4° C. and the supernatant is collected for cytochrome c analysis. Cytochrome c is detected by Western blotting. The cytochrome c bands are scanned and quantified using a Bio-Rad (GS-700 Imaging Densitometer).
The above set out 2 in vitro assays c) and d) involving the determination of mitochondrial cytochrome c release are based on immunochemical methods using the Western blot analysis. […]

T1 sequence (Q07812 whole entry): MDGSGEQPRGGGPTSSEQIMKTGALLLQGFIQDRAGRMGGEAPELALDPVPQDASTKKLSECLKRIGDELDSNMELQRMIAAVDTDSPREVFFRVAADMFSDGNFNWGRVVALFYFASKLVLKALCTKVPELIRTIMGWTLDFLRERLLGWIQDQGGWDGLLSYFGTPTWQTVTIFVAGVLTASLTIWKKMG

Compound: CCCCCNC(=O)N1CC(=NOC)C[C@H]1C(=O)NCCO [Example 23, (2S,4EZ)-N^2-(2-hydroxyethyl)-4-(methoxyimino)-N^1-pentyl-1,2-pyrrolidinedicarboxamide]
- inhibition at 10 µM: ~79%

Compound: CCCCCNC(=O)N1CC(=NOC)C[C@H]1C(=O)N1CCN(Cc2ccc3c(c2)OCO3)CC1 [Example 28, (2S,4EZ)-2-{[4-(1,3-benzodioxol-5-ylmethyl)-1-piperazinyl]carbonyl}-4-(methoxyimino)-N-pentyl-1-pyrrolidinecarboxamide]
- inhibition at 10 µM: ~59%
